{"source": "PubChem BioAssay AID260", "about": "(DTP/NCI, 2004)", "tested_on": "CD2F1 mice, intracerebral L1210 leukemia, survival T/C", "assay": "NCI In Vivo Anticancer Drug Screen. Data for tumor model L1210 Leukemia (intracerebral) in CD2F1 (CDF1) mice", "details": "higher = longer survival", "description": "The antitumor activity of compounds was measured in mice bearing transplantable tumors. Survival or tumor size were measured and the results are expressed as the measurement made in the treated group (T) divided by the measurement made in the vehicle treated control group (C). The tumor model used in this assay is L1210 Leukemia (intracerebral) in CD2F1 (CDF1) mice", "key": {"[1]": {"details": "endpoint: median survival time, dose: 16.0 mg/kg/injection, schedule: Q01DX005 (ip), vehicle: saline"}, "[2]": {"details": "endpoint: median survival time, dose: 128.0 mg/kg/injection, schedule: Q01DX005 (ip), vehicle: saline"}}, "note": "“And” between values parts separate entries of the source, which are not always exact repeats. Identical values can stand only once. Toxic doses and inconclusive results are not listed.", "data": [{"smiles": "O=NN(CCCl)C(=O)NC1CCC(=O)NC1=O", "note": "(configuration not stated)", "values": [{"measurement": "T/C", "setting": "endpoint: median survival time, dose: 2.0 mg/kg/injection, schedule: Q01DX001 (ip), vehicle: saline + alcohol", "result": "112 % of control"}, {"measurement": "T/C", "setting": "endpoint: median survival time, dose: 8.0 mg/kg/injection, schedule: Q01DX001 (ip), vehicle: DMSO", "result": "602 % of control"}, {"measurement": "T/C", "setting": "endpoint: median survival time, dose: 8.0 mg/kg/injection, schedule: Q01DX001 (ip), vehicle: saline + alcohol", "result": "192 % of control"}, {"measurement": "T/C", "setting": "endpoint: median survival time, dose: 8.0 mg/kg/injection, schedule: Q01DX001 (oral), vehicle: saline + alcohol", "result": "168 % of control"}, {"measurement": "T/C", "setting": "endpoint: median survival time, dose: 16.0 mg/kg/injection, schedule: Q01DX001 (ip), vehicle: DMSO", "result": "215 % of control"}, {"measurement": "T/C", "setting": "endpoint: median survival time, dose: 16.0 mg/kg/injection, schedule: Q01DX001 (ip), vehicle: saline + alcohol", "result": "224 % of control"}, {"measurement": "T/C", "setting": "endpoint: median survival time, dose: 16.0 mg/kg/injection, schedule: Q01DX001 (oral), vehicle: saline + alcohol", "result": "236 % of control"}, {"measurement": "T/C", "setting": "endpoint: median survival time, dose: 32.0 mg/kg/injection, schedule: Q01DX001 (ip), vehicle: DMSO", "result": "95 % of control"}, {"measurement": "T/C", "setting": "endpoint: median survival time, dose: 32.0 mg/kg/injection, schedule: Q01DX001 (ip), vehicle: saline + alcohol", "result": "389 % of control"}, {"measurement": "T/C", "setting": "endpoint: median survival time, dose: 32.0 mg/kg/injection, schedule: Q01DX001 (oral), vehicle: saline + alcohol", "result": "164 % of control"}, {"measurement": "T/C", "setting": "endpoint: median survival time, dose: 64.0 mg/kg/injection, schedule: Q01DX001 (oral), vehicle: saline + alcohol", "result": "97 % of control"}]}, {"smiles": "COc1cc([C@@H]2c3cc4c(cc3[C@@H](OC3OC5CO[C@@H](c6cccs6)OC5C(O)C3O)[C@H]3COC(=O)[C@H]23)OCO4)cc(OC)c1O", "note": "(some centres not stated)", "values": [{"measurement": "T/C", "setting": "endpoint: median survival time, dose: 0.25 mg/kg/injection, schedule: Q01DX009 (ip), vehicle: saline", "result": "101 % of control and 108 % of control"}, {"measurement": "T/C", "setting": "endpoint: median survival time, dose: 0.5 mg/kg/injection, schedule: Q01DX009 (ip), vehicle: saline", "result": "108 % of control and 111 % of control"}, {"measurement": "T/C", "setting": "endpoint: median survival time, dose: 1.0 mg/kg/injection, schedule: Q01DX009 (ip), vehicle: saline", "result": "111 % of control and 116 % of control"}, {"measurement": "T/C", "setting": "endpoint: median survival time, dose: 2.0 mg/kg/injection, schedule: Q01DX009 (ip), vehicle: saline", "result": "124 % of control and 114 % of control"}, {"measurement": "T/C", "setting": "endpoint: median survival time, dose: 4.0 mg/kg/injection, schedule: Q01DX009 (ip), vehicle: saline", "result": "122 % of control and 104 % of control"}, {"measurement": "T/C", "setting": "endpoint: median survival time, dose: 8.0 mg/kg/injection, schedule: Q01DX009 (ip), vehicle: saline", "result": "88 % of control"}]}, {"smiles": "CCCN(C)/N=N/c1nc[nH]c1C(N)=O", "values": [{"measurement": "T/C", "setting": "endpoint: median survival time, dose: 4.0 mg/kg/injection, schedule: Q01DX005 (ip), vehicle: suspension in saline", "result": "105 % of control"}, {"measurement": "T/C", "setting": "endpoint: median survival time, dose: 8.0 mg/kg/injection, schedule: Q01DX005 (ip), vehicle: suspension in saline", "result": "109 % of control"}, {"measurement": "T/C", "setting": "endpoint: median survival time, dose: 16.0 mg/kg/injection, schedule: Q01DX005 (ip), vehicle: suspension in saline", "result": "112 % of control"}, {"measurement": "T/C", "setting": "endpoint: median survival time, dose: 32.0 mg/kg/injection, schedule: Q01DX005 (ip), vehicle: suspension in saline", "result": "118 % of control"}, {"measurement": "T/C", "setting": "endpoint: median survival time, dose: 64.0 mg/kg/injection, schedule: Q01DX005 (ip), vehicle: suspension in saline", "result": "124 % of control"}]}, {"smiles": "CCN(CC)c1ccc2cc3ccc(=[N+](CC)CC)cc-3oc2c1", "values": [{"measurement": "T/C", "setting": "endpoint: median survival time, dose: 4.0 mg/kg/injection, schedule: Q01DX005 (ip), vehicle: saline", "result": "104 % of control"}, {"measurement": "T/C", "setting": "endpoint: median survival time, dose: 8.0 mg/kg/injection, schedule: Q01DX005 (ip), vehicle: saline", "result": "98 % of control"}, {"measurement": "T/C", "setting": "[1]", "result": "105 % of control and 113 % of control"}]}, {"smiles": "Nc1n[nH]c(N)n1", "values": [{"measurement": "T/C", "setting": "endpoint: mean survival time, dose: 512.0 mg/kg/injection, schedule: Q12HX018 (ip), vehicle: saline", "result": "96 % of control"}, {"measurement": "T/C", "setting": "endpoint: mean survival time, dose: 1024.0 mg/kg/injection, schedule: Q12HX018 (ip), vehicle: saline", "result": "107 % of control"}, {"measurement": "T/C", "setting": "endpoint: mean survival time, dose: 2048.0 mg/kg/injection, schedule: Q12HX018 (ip), vehicle: saline", "result": "110 % of control"}, {"measurement": "T/C", "setting": "[2]", "result": "107 % of control and 116 % of control"}, {"measurement": "T/C", "setting": "endpoint: median survival time, dose: 256.0 mg/kg/injection, schedule: Q01DX005 (ip), vehicle: saline", "result": "108 % of control and 111 % of control"}, {"measurement": "T/C", "setting": "endpoint: median survival time, dose: 512.0 mg/kg/injection, schedule: Q01DX005 (ip), vehicle: saline", "result": "120 % of control and 115 % of control"}, {"measurement": "T/C", "setting": "endpoint: median survival time, dose: 1024.0 mg/kg/injection, schedule: Q01DX005 (ip), vehicle: saline", "result": "119 % of control"}]}, {"smiles": "COS(C)(=O)=O", "values": [{"measurement": "T/C", "setting": "[1]", "result": "107 % of control and 108 % of control"}, {"measurement": "T/C", "setting": "endpoint: median survival time, dose: 32.0 mg/kg/injection, schedule: Q01DX005 (ip), vehicle: saline", "result": "120 % of control"}, {"measurement": "T/C", "setting": "endpoint: median survival time, dose: 64.0 mg/kg/injection, schedule: Q01DX005 (ip), vehicle: saline", "result": "113 % of control"}, {"measurement": "T/C", "setting": "[2]", "result": "107 % of control and 111 % of control"}]}, {"smiles": "CC(=O)NNC(=O)c1ccccn1", "values": [{"measurement": "T/C", "setting": "endpoint: median survival time, dose: 100.0 mg/kg/injection, schedule: Q01DX005 (ip), vehicle: Klucel (hydroxypropylcellulose) (HPC)", "result": "103 % of control"}, {"measurement": "T/C", "setting": "endpoint: median survival time, dose: 200.0 mg/kg/injection, schedule: Q01DX005 (ip), vehicle: Klucel (hydroxypropylcellulose) (HPC)", "result": "105 % of control"}]}, {"smiles": "O=C1C(=O)c2ccccc2C(O)=C1CC=C(Cl)Cl", "values": [{"measurement": "T/C", "setting": "endpoint: median survival time, dose: 10.0 mg/kg/injection, schedule: Q01DX005 (ip), vehicle: Klucel (hydroxypropylcellulose) (HPC)", "result": "89 % of control and 96 % of control"}, {"measurement": "T/C", "setting": "endpoint: median survival time, dose: 20.0 mg/kg/injection, schedule: Q01DX005 (ip), vehicle: Klucel (hydroxypropylcellulose) (HPC)", "result": "95 % of control and 96 % of control"}, {"measurement": "T/C", "setting": "endpoint: median survival time, dose: 40.0 mg/kg/injection, schedule: Q01DX005 (ip), vehicle: Klucel (hydroxypropylcellulose) (HPC)", "result": "101 % of control and 109 % of control"}, {"measurement": "T/C", "setting": "endpoint: median survival time, dose: 80.0 mg/kg/injection, schedule: Q01DX005 (ip), vehicle: Klucel (hydroxypropylcellulose) (HPC)", "result": "109 % of control and 117 % of control"}]}]}
